Laboratory results: paper PMC9952136 (Antibiotics, 2023)
Like-named read-outs stand apart in the source and are kept apart here.

Assays:
CYP3A4 (broiler) = assay: Probe substrate (testosterone) assay of CYP3A4 activity in broiler liver microsomes; type: in vitro ADME; settings: chicken (broiler)
Experimental: (§1) Probe drugs: a volume of 0.2 mL cold acetonitrile were added into 0.05 mL microsome incubation solution, then vortexed for 2 min to extract target compounds. The mixture was centrifuged at 12,000 rpm for 15 min. The supernatant was filtered through a 0.2 μm filter.
(§2) […]. […] Except for testosterone, which was incubated for 30 min, all other probe drugs were incubated for 4 h.

broiler CYP2A6 = type: in vitro ADME; settings: microsomes
Experimental: as §1

P-gp [1] = assay: mRNA and protein expression of P-gp in liver and small intestine of treated broilers; type: in vivo, broiler; settings: single gavage compared with the saline group
Experimental: (§3) The relative expressions of CYP3A4, P-gp and BCRP in tissue of broiler and Caco-2 were evaluated via quantitative real-time PCR (RT–qPCR, Bio-Rad, Hercules, CA, USA). […] Relevant cells were treated as indicated and total RNA was extracted from cells and tissue using RNA isolater Total RNA Extraction Reagent (R401-01, Vazyme Biotech Co., Ltd., Nanjing, China) following the manufacturer’s protocols, then reverse-transcribed into cDNA using HiScript II Q Select RT SuperMix for Qpcr (R233-01, Vazyme Biotech Co., Ltd.). The cDNA was determined by quantitative RT-PCR using 2 × AceQ qPCR SYBR Green Master Mix (Q141-02, Vazyme Biotech Co., Ltd.) with the primers (listed in Supplementary Tables S1 and S2). All data were analyzed using the 2−ΔΔCt method.
(§4) These were then collected in a RIPA lysis buffer (P0013B, Beyotime, Shanghai, China) and incubated on a rocker with ice for 30 min. […] Proteins were transferred into a polyvinylidene fluoride (PVDF) membrane (Bio-Rad) and then incubated with the CYP3A4 Rabbit pAb (Cat#A2544, ABclonal, Wuhan, China), ABCG2 Rabbit pAb (Cat#A5661, ABclonal, Wuhan, China), P-gp Rabbit pAb (Cat#A11747, ABclonal, Wuhan, China) over night, respectively. […] The immunoreactive bands were visualized on a gel imaging system (Tanon 5200 Multi, Tanon Technology Co., Ltd., Shanghai, China), and the intensities of the immunoreactive bands were quantified using Quantity One.

BCRP [2] = assay: mRNA and protein expression of BCRP in liver and small intestine of treated broilers; type: in vivo, broiler
Experimental: as §3, §4

[3] = in vivo, po, 6 mg/kg
Experimental: (§6) Mobile phase compositions were 0.5 mol/L H3PO4-triethylamine (pH = 2.4, phase A) and acetonitrile (phase B) (82:18, v/v) [1, 18].
(§7) SAL (Shandong Lukang, Jining, China): The LC-MS/MS assay method for SAL were introduced in the previous research [21]. The separate system of HPLC used 0.1% formic acid solution (phase A) and methanol (phase B) as mobile phase. […] Positive ion scanning mode was used; DP, CE, and CXP are 59.1 V, 65.64 V, and 12 V, respectively.
(§8) Plasma sample: Add 0.8 mL of acetonitrile to 0.2 mL of plasma to precipitate proteins. After vortexing the mixture for 5 min, centrifuge at 12,000 rpm for 10 min. Transfer the supernatant to a new 10 mL tube. The supernatant was blown dry with nitrogen at 40 °C, and the pellet was redissolved with 1 mL of methanol. The methanol reconstituted solution was filtered through a 0.2 μm filter.
(§9) PK parameters were calculated with WinNonlin software using non-compartmental settings (version 6.4; Pharsight Corporation, Mountain View, CA, USA).

P-gp [4] = test system: P-gp; design: method as in PMID 30989413; settings: cited from earlier work
human P-gp = test system: human P-gp; design: method as in PMID 21573958; settings: compared with P-gp inhibitor verapamil (Ver); cited from earlier work
in vivo = settings: po, 6 mg/kg
Experimental: as §6, §7, §8, §9

broiler CYP2E1 = assay: Probe substrate assay of CYP2E1 activity in broiler liver microsomes; type: in vitro ADME
Experimental: Probe drugs: a volume of 0.2 mL cold acetonitrile were added into 0.05 mL microsome incubation solution, then vortexed for 2 min to extract target compounds. […] The supernatant was filtered through a 0.2 μm filter.

CYP3A4 [5] = assay: Screening of CYP450 enzymes that metabolize SAL and ENR with positive inhibitors (KCZ) in broiler liver microsomes; type: in vitro ADME; settings: 50 μmol/L ENR; 0.5 mg/mL broiler liver microsomes; KCZ pre-incubated 30 min at 41 °C, then 4 h
Experimental: as §1
Briefly, alpha-naphthoflavone (α-NIF, inhibitor of CYP1A2), sulfafenpyrazole (SUl, CYP2D6), sodium diethyldithiocarbamate (DIE, inhibitor of CYP2E1), omeprazole (OMP, inhibitor of CYP2C45) and ketoconazole (KCZ, inhibitor of CYP3A4) were incubated with 50 μmol/L SAL or the ENR-NADPH system, respectively. The system consisted of 0.5 mg/mL broiler liver microsomes, 0.05 mmol/L Tris-HCl buffer, and 1 mmol/L NADPH.

broiler CYP3A4 = assay: Probe substrate (testosterone) assay of CYP3A4 activity in broiler liver microsomes; type: in vitro ADME
Experimental: as §1, §2

CYP3A4 [6] = assay: mRNA (RT-qPCR) and protein (Western blot) expression of hepatic CYP3A4 in treated broilers; type: in vivo
Experimental: as §3
These were then collected in a RIPA lysis buffer (P0013B, Beyotime, Shanghai, China) and incubated on a rocker with ice for 30 min. Cell and tissue lysates were centrifuged at 12,000× g/4 °C for 15 min and lysates were boiled at 100 °C for 5 min in 5× SDS Loading Buffer and resolved by SDS-PAGE. Proteins were transferred into a polyvinylidene fluoride (PVDF) membrane (Bio-Rad) and then incubated with the CYP3A4 Rabbit pAb (Cat#A2544, ABclonal, Wuhan, China), ABCG2 Rabbit pAb (Cat#A5661, ABclonal, Wuhan, China), P-gp Rabbit pAb (Cat#A11747, ABclonal, Wuhan, China) over night, respectively. They were then incubated with the HRP Goat Anti-Rabbit IgG (Cat#AS014, ABclonal, Wuhan, China) for 1.5 h. Immobilon Western Chemiluminescent HRP Substrate (Millipore) was used for protein detection. The immunoreactive bands were visualized on a gel imaging system (Tanon 5200 Multi, Tanon Technology Co., Ltd., Shanghai, China), and the intensities of the immunoreactive bands were quantified using Quantity One.

P-gp [7] = assay: P-gp gene and protein expression in Caco-2 cells (qPCR, WB); type: cell-based, human; settings: ENR 5 and 20 μmol/L, SAL 0.5 and 2 μmol/L; 12 or 24 h
Experimental: as §3
(§5) These were then collected in a RIPA lysis buffer (P0013B, Beyotime, Shanghai, China) and incubated on a rocker with ice for 30 min. Cell and tissue lysates were centrifuged at 12,000× g/4 °C for 15 min and lysates were boiled at 100 °C for 5 min in 5× SDS Loading Buffer and resolved by SDS-PAGE. […] The immunoreactive bands were visualized on a gel imaging system (Tanon 5200 Multi, Tanon Technology Co., Ltd., Shanghai, China), and the intensities of the immunoreactive bands were quantified using Quantity One.

BCRP [8] = assay: BCRP gene and protein expression in Caco-2 cells (qPCR, WB); type: cell-based, human; settings: ENR 5 and 20 μmol/L; 12 and 24 h; concentration- and time-dependent
Experimental: as §3, §5

[9] = Pharmacokinetic studies of ENR and SAL in broilers (plasma, non-compartmental); settings: for AUC(0-t) / AUC(0-inf) / Cmax / k el / MRT last / MRT inf / Tmax / half-life: AA broiler, plasma, po, 7.5 mg/kg, n=6, Mean ± SD; for AUC(0-t): AUC0-36h; for AUC(0-t) / AUC(0-inf) / Cmax / k el / MRT last / MRT inf / Tmax: broiler plasma; for AUC(0-inf): AUC0-∞; for k el: Ke; for MRT last: MRT0-36h; for MRT inf: MRT0-∞; for half-life: t1/2, broiler plasma;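 on all read-outs here: plasma drug levels measured by HPLC or LC-MS/MS, with PK parameters obtained through non-compartmental analysis in WinNonlin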
Experimental: as §6, §7, §8, §9

[10] = SAL (5 d) + ENR: SAL 60 mg/kg mixed feeding 5 days, then ENR 7.5 mg/kg gavage
[11] = SAL + ENR: ENR 7.5 mg/kg + SAL 6.0 mg/kg co-gavage
[12] = abstract, broilers, group not given

In the case of `CC[C@@H](C(=O)[C@@H](C)[C@@H](O)[C@H](C)[C@@H]1O[C@@H]([C@@H](CC)C(=O)O)CC[C@@H]1C)[C@H]1O[C@]2(C=C[C@@H](O)[C@]3(CC[C@@](C)([C@H]4CC[C@](O)(CC)[C@H](C)O4)O3)O2)[C@H](C)C[C@@H]1C` [SAL, salinomycin], the inhibition at 30 min, 100 µmol/L (CYP3A4 (broiler); broiler, microsomes) is reported as 52%, the “effect on CYP2A6 activity” value (broiler CYP2A6) is reported as “inductive effects” and the “effect on P-gp gene expression levels in the liver and small intestine” value (P-gp [1]) is reported as “suppress”. For the same molecule, the “effect of SAL on expression of BCRP” value (BCRP [2]; ENR + SAL group compared with single ENR group) was “significantly inhibited”, the “effect of SAL on expression of BCRP” value (BCRP [2]; SAL (5d) + ENR group compared with single ENR group) was “significantly induced” and the MRT0-48h ([3]; AA broiler) was 5.53 ± 1.16 h. For the same molecule, the “MRT0-∞” value ([3]; AA broiler) was 7.53 ± 2.39 h, the AUC0-48h ([3]; AA) was 218.96 ± 42.32 ng·h/mL and the “AUC0-∞” value ([3]; AA) was 264.78 ± 40.60 ng·h/mL. The “effect on P-gp in A549 cells” value (P-gp [4]; 5 μM SAL, 30 min and 1 h) was “no significant effect”, the “effect on expression of P-gp in A549 cells” value (P-gp [4]; SAL treatment for 72 h) was “significantly induced” and the “inhibition of human P-gp” value (human P-gp) was “effectively inhibit”. For the same molecule, the k el (in vivo; AA broiler, Ke) was 1.39e-05 s⁻¹, the Tmax (in vivo; AA, Tmax) was 0.42 ± 0.3 h and the half-life (in vivo; AA, t1/2) was 14.2 ± 3.1 h.

With `CC[C@@H](C(=O)[C@@H](C)[C@@H](O)[C@H](C)CCc1ccc(C)c(O)c1C(=O)O)[C@H]1O[C@](CC)([C@H]2CC[C@](O)(CC)[C@H](C)O2)C[C@@H]1C` [LAS, lasalocid] the “effect on CYP2E1 activity” value (broiler CYP2E1) was “inductive effects”.

In the case of `CCN1CCN(c2cc3c(cc2F)c(=O)c(C(=O)O)cn3C2CC2)CC1` [ENR, Enrofloxacin], the “decrease of ENR metabolic rate after addition of the CYP3A4-specific inhibitor KCZ” value (CYP3A4 [5]) is reported as 32%, the inhibition at 30 min, 100 µmol/L (CYP3A4 (broiler); probe testosterone (TS), 100 µmol/L, pre-incubated 30 min at 41 °C, broiler liver microsomes, probe testosterone, read-out: inhibition rate on CYP3A4 (TS metabolism)) is reported as 32% and the “effect on CYP3A4 at short pre-incubation” value (broiler CYP3A4; 0 and 3 min of pre-incubation) is reported as “induced”. The “dependence of CYP3A4 inhibition on pre-incubation time” value (broiler CYP3A4; 100 μmol/L, pre-incubated 0, 3, 5, 15, 30 min) was “time-dependent”, the “dependence of CYP3A4 inhibition on concentration” value (broiler CYP3A4; 50, 100 and 500 μmol/L) was “concentration-dependent inhibitory effects” and the “effect of ENR on mRNA and protein levels of CYP3A4 in liver” value (CYP3A4 [6]; ENR (5d) + SAL group contrasted with single SAL group) was “significantly inhibited”. The “effect of ENR on CYP3A4 gene expression in liver” value (CYP3A4 [6]; ENR + SAL group contrasted with single SAL group) was “overexpression”, the “effect on protein expression of CYP3A4 in liver” value (CYP3A4 [6]; single gavage (ENR 7.5 mg/kg or SAL 6.0 mg/kg) compared with physiological saline group) was “induced” and the “gene and protein expressions of P-gp in Caco-2 cells” value (P-gp [7]) was “significantly decreased”. For the same molecule, the “expression of BCRP in Caco-2 cells” value (BCRP [8]) was “decreased”, the AUC(0-t) ([9]; ENR (7.5 mg/kg) gavage alone) was 12800 ± 3990 ng·h/mL and the AUC(0-t) [9, 10] was 15300 ± 1290 ng·h/mL. The AUC(0-t) [9, 11] was 16700 ± 1290 ng·h/mL, the AUC(0-inf) ([9]; ENR (7.5 mg/kg) gavage alone) was 13500 ± 4080 ng·h/mL and the AUC(0-inf) [9, 10] was 16000 ± 1450 ng·h/mL. For the same molecule, the AUC(0-inf) [9, 11] was 17500 ± 1450 ng·h/mL, the Cmax ([9]; ENR (7.5 mg/kg) gavage alone) was 1490 ± 540 ng/mL and the Cmax [9, 10] was 1600 ± 160 ng/mL. It also gave a Cmax [9, 11] of 1480 ± 160 ng/mL, a k el ([9]; ENR (7.5 mg/kg) gavage alone) of 1.94e-05 s⁻¹ and a k el [9, 10] of 2.5e-05 s⁻¹. It also gave a k el [9, 11] of 2.5e-05 s⁻¹, an MRT last ([9]; ENR (7.5 mg/kg) gavage alone) of 8.29 ± 1.03 h and an MRT last [9, 10] of 8.35 ± 0.52 h. It also gave an MRT last [9, 11] of 9.06 ± 0.52 h, an MRT inf ([9]; ENR (7.5 mg/kg) gavage alone) of 10.8 ± 1.76 h and an MRT inf [9, 10] of 10.1 ± 0.9 h. It also gave an MRT inf [9, 11] of 10.6 ± 0.9 h, a Tmax ([9]; ENR (7.5 mg/kg) gavage alone) of 1.5 ± 0.55 h and a Tmax [9, 10] of 2.17 ± 1.03 h. It also gave a Tmax [9, 11] of 2.67 ± 1.03 h, a half-life ([9]; ENR (7.5 mg/kg) gavage alone) of 7.45 ± 1.71 h and a half-life [9, 10] of 8.13 ± 0.86 h. For the same molecule, the half-life [9, 11] was 8.65 ± 0.54 h, the “increase of area under the curve by SAL” value [9, 12] was 1.3 times and the “increase of elimination half-life by SAL” value [9, 12] was 1.2 times.
